Data on 5 compounds can be found in publication PMC6450877, “A revised biosynthetic pathway for the cofactor F420 in prokaryotes” (Nature Communications, 2019).

Structures are written as SMILES.

In experiment [1] the target is T1, Mtb-FbiA (Mycobacterium tuberculosis, UniProt P9WP81).
The target of experiment [2] is T2, Mtb-FbiB (Mycobacterium tuberculosis, UniProt P9WP79).
Experiment [3] concerns the target T1, Mtb-FbiA. The source holds these as a separate data set.
The target of experiment [4] is T3, Mtb-FbiD (Mycobacterium tuberculosis, UniProt P9WP83).
The next experiment has as its target T4, Mj-CofC (Methanocaldococcus jannaschii, UniProt Q58297).
T4 construct: synthetic ORF in pYUB28b, expressed in E. coli, Ni-NTA and SEC
T4 sequence (Q58297 1-224): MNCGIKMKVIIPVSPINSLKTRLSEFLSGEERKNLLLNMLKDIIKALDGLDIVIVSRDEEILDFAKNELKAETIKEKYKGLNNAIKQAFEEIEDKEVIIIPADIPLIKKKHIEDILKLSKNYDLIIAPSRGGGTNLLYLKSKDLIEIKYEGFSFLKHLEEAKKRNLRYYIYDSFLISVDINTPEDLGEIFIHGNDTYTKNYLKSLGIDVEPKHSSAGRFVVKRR
Briefly: coupled HPLC-MS assay with Mtb-FbiA. Format: biochemical. Conditions: Mtb-FbiA present, 1 mM PEP, 2 mM GTP, 0.1 mM Fo, 5 mM MgCl2, pH 7.5, 37 °C.

Experiment [5] concerns the target T3, Mtb-FbiD. This is another data set of the same source.
The target of experiment [6] is T2, Mtb-FbiB. This is another data set of the same source.

T1 sequence (P9WP81 whole entry): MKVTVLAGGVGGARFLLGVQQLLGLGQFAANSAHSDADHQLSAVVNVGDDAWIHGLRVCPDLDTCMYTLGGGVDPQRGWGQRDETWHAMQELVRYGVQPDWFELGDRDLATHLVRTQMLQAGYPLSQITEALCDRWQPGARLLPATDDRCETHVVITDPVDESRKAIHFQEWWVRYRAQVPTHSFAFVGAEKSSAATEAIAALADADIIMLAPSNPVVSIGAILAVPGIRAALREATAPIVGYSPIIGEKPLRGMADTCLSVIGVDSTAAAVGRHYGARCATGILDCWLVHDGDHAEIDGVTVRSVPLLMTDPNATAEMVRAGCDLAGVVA
T2 sequence (P9WP79 whole entry): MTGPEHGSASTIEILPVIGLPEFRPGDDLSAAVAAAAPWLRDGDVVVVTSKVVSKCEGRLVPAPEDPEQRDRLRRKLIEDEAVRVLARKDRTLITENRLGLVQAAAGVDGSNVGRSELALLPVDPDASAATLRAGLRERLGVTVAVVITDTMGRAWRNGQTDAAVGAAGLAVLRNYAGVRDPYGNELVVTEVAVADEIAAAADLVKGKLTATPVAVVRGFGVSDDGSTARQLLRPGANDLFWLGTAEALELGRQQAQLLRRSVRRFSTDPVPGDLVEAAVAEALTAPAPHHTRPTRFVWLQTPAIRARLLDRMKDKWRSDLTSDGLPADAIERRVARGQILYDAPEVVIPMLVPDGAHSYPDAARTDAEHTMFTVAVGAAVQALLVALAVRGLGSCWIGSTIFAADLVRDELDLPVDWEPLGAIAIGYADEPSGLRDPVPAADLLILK
T3 sequence (P9WP83 whole entry): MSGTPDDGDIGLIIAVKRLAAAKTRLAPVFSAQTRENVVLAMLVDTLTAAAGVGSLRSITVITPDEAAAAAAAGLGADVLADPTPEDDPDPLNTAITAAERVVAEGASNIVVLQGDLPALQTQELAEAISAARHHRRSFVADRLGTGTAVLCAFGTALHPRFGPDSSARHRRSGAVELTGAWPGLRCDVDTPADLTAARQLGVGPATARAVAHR

As for `C=C(OP(=O)(O)OC[C@@H](O)[C@@H](O)[C@@H](O)Cn1c2nc(=O)[nH]c(=O)c-2cc2ccc(O)cc21)C(=O)O` [dehydro-F420-0], on Mtb-FbiA [1], the “coupled HPLC assay, MS/MS” value was “The discovery of dehydro-F420-0 as the product of FbiD:FbiA activity in mycobacteria”. For the same compound, the “coupled FbiD:FbiA:FbiB assay with Fre/FMNH2, MS/MS” value at Mtb-FbiB [2] is “dehydro-F420-0 is a bona fide metabolic intermediate that can be converted to mature F420 by FbiB”. In the case of `O=c1nc2n(C[C@H](O)[C@H](O)[C@H](O)CO)c3cc(O)ccc3cc-2c(=O)[nH]1` [Fo, 7,8-didemethyl-8-hydroxy-5-deazariboflavin], the “coupled HPLC-MS assay with FbiD or CofC” value on Mtb-FbiA [3] was “when these enzymes were incubated with PEP, GTP (or ATP), and Fo”. For the compound `C=C(OP(=O)(O)O)C(=O)O` [PEP, phosphoenolpyruvate], the “X-ray crystal structure, soak, 2.18 Å” value on Mtb-FbiD [4] was “We also soaked PEP into pre-formed FbiD crystals to obtain an FbiD-PEP complex”. Besides, the “coupled HPLC-MS assay with Mtb-FbiA” value on Mj-CofC is “both Mtb-FbiD and CofC from Methanocaldococcus jannaschii (Mj-CofC) enzymes use PEP to produce dehydro-F420-0”. On to `Nc1nc2c(ncn2[C@@H]2O[C@H](COP(=O)(O)OP(=O)(O)OP(=O)(O)O)[C@@H](O)[C@H]2O)c(=O)[nH]1` [GTP, guanosine-5ʹ-triphosphate], for which the “coupled HPLC-MS assay with FbiA” value at Mtb-FbiD [5] is “Mtb-FbiD exclusively utilizes GTP to produce dehydro-F420-0”.

On to `N[C@@H](CCC(=O)O)C(=O)O` [L-glutamate], for which the “coupled FbiD:FbiA:FbiB assay, LC-MS” value at Mtb-FbiB [6] is reported as “Mtb-FbiB was observed to catalyze the addition of L-glutamate residues to dehydro-F420-0”.
